Results as given in patent publication US11185539B2 (priority 2017, dated 2021).

Legend:
[1] = test system: primary human cardiac fibroblasts (HCFs); assay: Proliferation of primary human cardiac fibroblasts, BrdU-ELISA; format: cell-based; details: 24 h; for proliferation of primary HCFs: 0.1, 1, 10 μM (Lycorine 1, 5, 10 μM), DMSO control; for proliferation of HCFs (derivative screen): 10 μM, DMSO solvent control
Experimental: HCFs were incubated with 0.1 μM, 1 μM and 10 μM Bufalin, Gitoxigenin, Anisomycin and Geldanamycin as well as with 1 μM, 5 μM and 10 μM Lycorine for 24 h and proliferation of HCFs was measured by BrdU-ELISA (see FIG. 1). Due to major drawbacks as a drug candidate, Geldanamycin was not included in the follow-up studies, in particular in the in vivo experiments.
(§1) HCFs and HL-1 cells were treated with Bufalin, Gitoxigenin, Lycorine and Anisomycin for 24 h with the same concentrations as indicated in Example 1 and proliferation of HCFs and cardiomyocyte cell line HL-1 cells was measured by BrdU-ELISA, DMSO refers as a control (see FIG. 2B, 3B, 4B, 5B). The cell proliferation ELISA is a colorimetric alternative to quantitate cell proliferation based on the measurement of BrdU incorporation during DNA synthesis in proliferating cells. After its incorporation into DNA, BrdU is detected by immunoassay by using antibodies being highly specific for BrdU. First, HCFs and/or HL-1 cells are cultured together with various dilutions of test substances (e.g. mitogens, growth factors, cytokines and test compounds such as Bufalin, Gitoxigenin, Lycorine and Anisomycin as mentioned above etc.) in a 96-well in a final volume of 100 μl/well in a humified atmosphere of 37° C. Afterwards, 10 μl/well BrdU labeling solution is added to the cells being cultured in 100 μl/well (final concentration: 10 μM BrdU). Then, cells were re-incubated for additional 2 to 24 h at 37° C. Next, labeling solution is removed and 200 μl/well FixDenat is added to the cells and incubated for 30 min at 15 to 25° C. Then, 100 μl/well anti-BrdU-POD working solution is added and incubated for approximately 90 min, after FixDenat is removed. Next, antibody conjugate is removed and wells are washed with 200 μl-300 μl/well Washing solution (PBS, 1×). After the washing solution is removed, 100 μl/well Substrate solution is added and it is incubated again until color development is sufficient for photometric detection. Further, HCFs were treated with said compounds (Lycorine: 5 μM, Bufalin: 1 μM, Gitoxigenin: 1 μM and Anisomycin: 1 μM) for 24 h as indicated again and subjected to FACS analysis after Annexin-7AAD-staining (see FIG. 2C, 3C, 4C, 5C). After the treatment with said compounds, annexin-7AAD-staining starts with inducing apoptosis in HCFs by a desired method, known to the person skilled in the art, a negative control (w/o induction and staining) and a positive control (f. ex. 500 μM H2O2 or 3 μM Staurosporin) is also needed. Then, the medium with HCFs is transferred into a falcon, washed with PBS and trypsinized. Everything is centrifuged for 5 min at 300×g and then the supernatant is aspirated. The pellet is re-suspended in 200 μl Annexin Red/7AAD Working Solution (1:20, 5 μl Annexin Red/7AAD+195 μl 1× Assay Buffer) and transferred into an Easy Cap Eppendorf tube. After incubation of 15 min at 37° C., it is centrifuged at room temperature (RT) for 5 min at 300×g. Then, the supernatant is aspirated, the pellet washed once with 200 μl 1× Assay Buffer and centrifuged again at RT for 5 min at 300×g. Again, the supernatant is aspirated and the pellet is re-suspended in 200 μl Annexin Red/7AAD working solution and incubated again at RT for 5 min in the dark. Samples are now ready for acquisition on a flow cytometer (blue and red laser).
The cells were incubated for 24 h with 10 μM Bufalin and Lycorine and with 10 μM derivatives of Bufalin (derivatives 3, 5, 6, 7, 8, 9, 10, 11, 12, 13, 14, 16, 17, 18 and 25) and Lycorine (derivative 1, 2, 4, 15, 19, 20, 21, 22, 23, 24 and 26). Then, proliferation of HCFs was measured by BrdU-ELISA (see FIG. 31).

[2] = test system: C57BL/6 mice with angiotensin II-induced diastolic heart failure; assay: Picrosirius-red collagen staining of heart sections, angiotensin II model (two weeks); format: in vivo; details: i.p. every other day, Bufalin 0.5, Lycorine 4.5, Anisomycin 10, Gitoxigenin 0.01 mg/kg, day 14
Experimental: Diastolic heart failure (HF) was induced in C57BL/6 mice via implantation of angiotensin II filled minipumps. Male C57BL/6 mice 8-10 weeks old were used in the present invention being based on a C57BL/6N-background (Charles River, Germany).
For implantation of angiotension II filled minipumps, Angiotensin-II is applied by osmotic minipumps for two weeks (Alzet® [Modell 1001]). The recommended dose amounts for 1.5 or 3.0 mg/kg/per day. The minipumps are filled under sterile conditions with Angiotensin-II or with isotonic saline solution functioning as a control substance. Implantation takes place under intraperitoneal injection anaesthesia. […] Mice are then fixed on a pre-heated operating table and are provided with Bepanthen eye salve against drying out of the conjunctives. The operating field is located in the right caudal third of the back. It is shaved and desinfected with Braunol, afterwards it is coated with a 0.5% Lidocain-solution. After a period of one hour implantation can be started. The skin is cut through vertical to the back line, preferably the length is one centimeter. A pocket from the cutting line to cranial is subcutaneously formed. Herein, the minipumps are injected. Afterwards, the skin is then closed with a 5-0 Prolene string with interrupted sutures. Then, the closed wound is coated again with Braunol. For preventing hypothermia mice wake up in their cages, which are placed up to one-third on a terrarium-warming mat with regulated temperatures of 37°. Surgery amounts for 5 minutes/per animal.
Next, the natural compounds (Bufalin, Gitoxigenin, Lycorine, and Anisomycin) were injected intraperitoneally every other day during two consecutive weeks starting two days after the operation (see FIG. 6). DMSO was also injected into C57BL/6 mice with induced cardiac remodeling as a control. Cardiac function was assessed echocardiographically and fibrosis-development via collagen staining with picosirius-red in histological sections of the hearts (Example 4).
Further, fourteen days after the operation, histological sections of the hearts were stained for collagen using picrosirius-red (n=3-5 per group) after treatment with said compounds (Bufalin: 0.5 mg/kg, Lycorine 4.5 mg/kg, Anisomycin: 10 mg/kg and Gitoxigenin: 0.01 mg/kg).

circular RNA CDR1as = assay: CDR1as expression in HCFs, qRT-PCR; format: cell-based, human; details: Lycorine 5 μM, others 1 μM, 24 h, vs DMSO
Experimental: Expression levels of CDR1as are increased in primary HCFs upon treatment with Bufalin, Gitoxigenin, Lycorine, Anisomycin and Geldanamycin. HCFs were incubated for 24 h with Bufalin (1 μM), Gitoxigenin (1 μM,) Lycorine (5 μM), Anisomycin (1 μM) and Geldanamycin (1 μM) and upregulation of CDR1as (normalized to 18S rRNA) by the respective compound was validated via qRT-PCR (see FIG. 22).

primary HCFs = assay: Cell death in HCFs, FACS after Annexin-7AAD-staining; format: cell-based, human; details: Lycorine 5 μM, Bufalin, Gitoxigenin, Anisomycin 1 μM, 24 h
Experimental: as §1, with “Then, the supernatant is aspirated, the pellet washed once with 200 μl 1× Assay Buffer and centrifuged again at RT for 5 min at 300×g. Again, the supernatant is aspirated and the pellet is re-suspended in 200 μl Annexin Red/7AAD working solution and incubated again at RT for 5 min in the dark.” left out

miR-671-5p = miR-671-5p expression in HCFs, qRT-PCR; format: cell-based, human; details: Lycorine 5 μM, others 1 μM, 24 h, vs DMSO

| Structure (SMILES) | proliferation of primary HCFs [1] | collagen deposition in heart sections (picrosirius-stained areas) [2] | expression levels of CDR1as (normalized to 18S rRNA) (circular RNA CDR1as) | cell death in primary HCFs (Annexin-7AAD-staining) (primary HCFs) | expression levels of miR-671-5p (normalized to RNU48) (miR-671-5p) | proliferation of HCFs (derivative screen) [1] |
| --- | --- | --- | --- | --- | --- | --- |
| COc1ccc(C[C@H]2NC[C@H](O)[C@H]2OC(C)=O)cc1 [Anisomycin] | Dose-dependent inhibitory effects | prominent reduction of collagen deposition | increase | does not induce cell death | decreased |  |
| C[C@]12CC[C@H](O)C[C@H]1CC[C@@H]1[C@@H]2CC[C@]2(C)[C@@H](c3ccc(=O)oc3)CC[C@]12O [Bufalin] | Dose-dependent inhibitory effects | prominent reduction of collagen deposition | increase | does not induce cell death | decreased | proliferation is prevented |
| C[C@]12CC[C@H](O)C[C@H]1CC[C@@H]1[C@@H]2CC[C@]2(C)[C@@H](C3=CC(=O)OC3)[C@@H](O)C[C@]12O [Gitoxigenin] | Dose-dependent inhibitory effects | prominent reduction of collagen deposition | increase | does not induce cell death | decreased |  |
| O[C@H]1[C@H]2c3cc4c(cc3CN3CCC(=C[C@@H]1O)[C@H]23)OCO4 [Lycorine] | Dose-dependent inhibitory effects | prominent reduction of collagen deposition | increase | does not induce cell death | decreased | proliferation is prevented |
